From the OPERA property sets (Mansouri et al. 2018) come the findings set out here.

Peptide text beside a SMILES is read from it.

Regarding `O=C(N/N=C/c1cc[nH]c1)Nc1ccccc1`, the lipophilicity (logP) turned out to be 2.96.
The same measure for `COc1cc(S(=O)(=O)CCN(C)Cc2ccccc2)cc(OC)c1OC`: 2.18.
With `CC(C)[C@H](C(=O)OC(C#N)c1cccc(Oc2ccccc2)c1)c1ccc(OC(F)F)cc1` (stereo partly specified), the logP worked out at 6.2.
For the molecule `O=C(O)c1ccc2ccccc2c1`, the logP is 3.28.
The molecule `CCCNc1nc(NC(C)C)nc(SC(F)F)n1` returned a logP of 4.23.
`OCCN1CCCCC1` returned a logP of 0.96.
Consider `CCOC(=O)c1cc2ccc(CC)cc2nn1`, for which the logP was determined as 2.31.
`Nc1ccccc1N`: the logP was 0.15.
The same measure for `O=C(C=CC(=O)c1ccccc1)c1ccccc1`: 3.16; for `Cc1n[nH]c(C(N)=O)c1[N+](=O)[O-]`: -0.38.
Molecule `C=CCNCC=C` came in with a logP of 1.11.
Turning to `CC(=O)N[C@@H](Cc1ccccc1)C(=O)NCC(N)=O` (Ac-Phe-Gly-NH2), the logP is -0.5.
In turn, `O=P(O)(O)c1ccccc1` had a logP of 0.54.
In turn, `C=CCC1(CC(=C)Br)C(=O)NC(=O)NC1=O` displayed a logP of 1.37.
In the case of `COCC(C)OC` (stereo unspecified), the logP is -0.09.
`CN(C)C(=O)OCc1cccc(Cl)c1` registered a logP of 2.82.
The same measure for `Oc1ccc(O)cc1`: 0.59; for `Cc1onc(-c2c(Cl)cccc2Cl)c1C(=O)N[C@@H]1C(=O)N2[C@@H]1SC(C)(C)[C@@H]2C(=O)O`: 2.91; for `CC(=O)c1ccc(N)cc1`: 0.83.
The same measure for `C=CCCC(C)=O`: 1.02; for `Nc1nc2nn[nH]c2c(=O)[nH]1`: -0.71.
In the case of `CON(C)C(=O)Nc1cccc([N+](=O)[O-])c1`, the logP came to 1.64.
The same measure for `O=C(O)COc1ccc2c(c1)CCCC2`: 2.67; for `CCOP(=S)(OCC)Oc1ccc(SC)cc1`: 4.16.
Molecule `O=C(O)CCCc1ccccc1` came in with a logP of 2.42.
The molecule `Oc1cnc2ccccc2c1` came in with a logP of 2.08.
Take `CCOS(=O)(=O)OCC`: the logP turned out to be 1.14.
Molecule `Cc1ccc2cc3c(ccc4ccccc43)c3c2c1CC3` had a logP of 6.42.
In turn, `CCCCNC(=O)c1ccc(S(N)(=O)=O)cc1` had a logP of 1.05.
`O=C(O)COc1ccccc1`: the logP amounted to 1.34.
The same measure for `CCCCCCCc1nn[nH]n1`: 2.01; for `CCCSCS(=O)CC(CO)NC(=O)C=Cc1c(C)[nH]c(=O)[nH]c1=O` (stereo unspecified): -0.67; for `COc1ccccc1C(=O)NCCN(C)C`: 1.14.
The same measure for `CC(C)(C)c1cc(O)ccc1[N+](=O)[O-]`: 3.65; for `c1ccc(-c2cccnc2)nc1`: 1.46.
`CCCCOC(C)=O` returned a logP of 1.78.
The same measure for `CCN(CC)C(=O)c1ccccc1`: 1.25.
The same measure for `O=C1CN=C(c2ccccc2F)c2ccccc2N1`: 2.38; for `CCCOCCC`: 2.03.
For `Cc1c(Cl)ccc(OC(C)C(O)=Nc2ccccc2)c1Cl` (stereo unspecified), the logP stood at 4.8.
The same measure for `CC(=O)OCC1=C(C(=O)O)N2C(=O)C(NC(=O)COc3ccccc3)C2SC1` (stereo unspecified): 0.26.
As to `Nc1ccc(Sc2ccc(N)cc2)cc1`, the logP is 2.18.
Regarding `O=C(CCl)NC(CO)C(O)c1ccc([N+](=O)[O-])cc1` (stereo unspecified), the logP came out at 0.59.
The same measure for `CC(=O)OCCn1c([N+](=O)[O-])cnc1C`: 0.3; for `CC(=O)N(C)Nc1ccccc1`: 1.31.
Consider `CCc1nnc(N)o1`, for which the logP is -0.3.
Molecule `COc1cccc(C)c1` returned a logP of 2.66.
In the case of `NC(=O)OCCC1=C(N2CC2)C(=O)C(Br)=C(N2CC2)C1=O`, the logP was found to be 0.68.
The same measure for `NS(=O)(=O)c1ccc(S(=O)(=O)CCO)s1`: -0.54.
Turning to `Oc1cccc(I)c1`, the logP was 2.93.
The same measure for `CC#CC#CC`: 2.24.
Consider `COC1=C(N2CC2)C(=O)C(OC)=C(N2CC2)C1=O`, for which the logP is 0.17.
In the case of `Oc1ccc(-c2ccccc2)cc1`, the logP worked out at 3.2.
The same measure for `CNC(=O)Oc1cccc(OC)c1`: 1.3; for `CCn1c(=O)c2nc(-c3ccc(S(=O)(=O)NCCN(C)C)cc3)[nH]c2n(CC)c1=O`: 2.57.
In turn, `COC(=O)c1ccc(N=NN(C)C)cc1` yielded a lipophilicity (logP) of 3.22.
Molecule `OC(c1ccccc1)c1ccccn1` (stereo unspecified) had a logP of 1.52.
`CCCCCCOCc1cccc(NC(=O)OCCN2CCCCC2)c1` registered a logP of 4.97.
`Cn1cccc1C=NNC(=O)Nc1ccccc1` displayed a logP of 2.71.
As to `COc1cccc(NC(=O)N(CCCl)N=O)c1`, the logP stood at 2.66.
Molecule `CCC(=O)O` gave a logP of 0.33.
As for `ON=Cc1ccc(F)cc1`, the logP is 2.03.
In turn, `Oc1ccccc1I` gave a logP of 2.65.
`CCOP(=S)(OCC)SCSc1ccc(Cl)cc1` displayed a logP of 5.33.
In turn, `Clc1cc(Cl)c(-c2c(Cl)ccc(Cl)c2Cl)cc1Cl` displayed a logP of 7.28.
`BrCCCc1ccccc1` displayed a logP of 3.72.
In the case of `CNC(=O)Oc1cccc(C)c1C`, the logP was found to be 1.95.
For `Cc1ccc(S(=O)(=O)F)cc1`, the logP is 2.74.
Turning to `C=CCC1(C(C)CCC)C(=O)NC(=O)NC1=O` (stereo unspecified), the logP was 1.97.
Molecule `O=C(O)[C@@H]1CCCN1` gave a log partition coefficient (logP) of -2.54.
`CC(C)(C)[N+](=O)[O-]` displayed a logP of 1.17.
For `O=[N+]([O-])c1cc[n+]([O-])c2ccccc12`, the logP is 1.09.
As to `NNC(=O)c1ccccc1Cl`, the logP turned out to be 0.14.
Molecule `Cc1ccccc1S(I)=C(N(C)C)N(C)C` (stereo unspecified) returned a logP of -0.1.
With `CCCC(=NOCC)C1C(=O)CC2(CC(C)CC(C)C2)OC1=O` (stereo unspecified), the logP amounted to 4.48.
`COc1ccccc1C=C(C(C)=O)C(C)=O` showed a logP of 1.73.
As for `Nc1ccc(-c2ccc(N)c(Cl)c2)cc1Cl`, the logP is 3.51.
The same measure for `CC(C)(N)Cc1ccc(Cl)cc1`: 2.6; for `O=C(c1ccccc1)C(F)(F)F`: 2.15.
The same measure for `CC(C)c1nnc(S)n(N)c1=O`: 1.22; for `NC(=O)C(F)(F)F`: 0.12.
The same measure for `CCCC1(c2ccncc2)CCC(=O)NC1=O` (stereo unspecified): 1.13; for `Nc1cccc2ncccc12`: 1.16.
In the case of `c1ccc(N2CCCCC2)cc1`, the lipophilicity (logP) came out at 2.98.
As for `c1ccc(Cn2cnnc2)cc1`, the logP amounted to 0.74.
In turn, `O=[N+]([O-])c1ccnc2ccccc12` came in with a logP of 2.06.
As to `CC1=Nc2ccc(Cl)cc2S(=O)(=O)N1`, the logP stood at 1.2.
In the case of `CN(C)CC(F)(F)F`, the logP was found to be 1.06.
`CCCCCC1(c2ccncc2)CCC(=O)NC1=O` (stereo unspecified) showed a log partition coefficient (logP) of 2.26.
The same measure for `CCCCCCCC(=O)OCC(=O)C1(O)CCC2C3CCC4=CC(=O)CCC4(C)C3C(O)CC21C` (stereo unspecified): 5.49.
The same measure for `C[C@]12CC[C@H](O)C[C@H]1CC[C@@H]1[C@@H]2C[C@@H](O)[C@]2(C)[C@@H](C3=CC(=O)OC3)CC[C@]12O`: 1.1; for `CCCOC(=O)c1cccnc1`: 1.94.
As to `CCCCCCCOC(=O)c1ccc(O)cc1`, the logP came out at 4.83.
With `Cc1ccc2c(c1)nc(N)n2C`, the logP was determined as 1.47.
Molecule `CN(C)C(N(C)C)=S(I)c1ccccc1F` (stereo unspecified) displayed a logP of -0.55.
The same measure for `CCC1Nc2cc(Cl)c(S(N)(=O)=O)cc2S(=O)(=O)N1` (stereo unspecified): 0.3.
